One block for each substance: values may come before it.
Assays:
[1] = Rheology of the gels (strain sweep, frequency sweep, thixotropic test); assay type: physicochemical
Experimental: […]-C8 therefore forms a very stiff but brittle gel.
An aliquot (550 μL) of this solution was then cast onto an Anton Paar MCR 302 rheometer (parallel plate geometry, 25 mm diameter, 1 mm gap) and left to gel over the course of 4 h. A solvent trap and Peltier hood was used to prevent any evaporation during gelation. Frequency sweeps were performed from 0.1–10 Hz, at a constant strain of 0.2% and three repeats performed on separate samples. Strain sweeps were performed from 0.1–100% at a constant frequency of 1 Hz.

[2] = Solubility in water and organic solvents
[3] = Gelation by inversion test; settings: for minimum gel concentration (MGC): inversion test
[4] = hydrogel of similar PA; cited from earlier work
Source text: This is consistent with previous findings that increasing the proportion of valines in the β-sheet forming region of a PA results in an increase in gel stiffness. With PAs such as […]16, the β-sheet signal in the CD spectrum is red-shifted by a magnitude that inversely correlates with gel stiffness, and this has been attributed to the extent of twisting of the sheets, i.e., stiffer gels involve stronger peptide interactions with the least t ...

gel stiffness (approximated by G') ([1]; 0.20 wt.% gel in 50% acetonitrile/water, frequency sweep 0.1-10 Hz at constant 0.2% strain, three repeats on separate samples): 1.5 × 10^5 Pa
cross-over point under oscillatory strain ([1]; DMF organogel): no cross-over point observed
strain at which mechanical properties deviate from the linear viscoelastic region ([1]; gel from 0.20 wt.% solution in 50% acetonitrile/water, strain sweep 0.1-100% at constant frequency of 1 Hz): less than 1 % strain
cross-over point from gel to liquid (G' = G'') ([1]; gel from 0.20 wt.% solution in 50% acetonitrile/water, strain sweep at constant frequency of 1 Hz): 3 % strain
solubility in DMF ([2]; DMF): dissolved
solubility in acetonitrile ([2]; acetonitrile): insoluble
solubility in dichloromethane ([2]; dichloromethane): dissolved
solubility in dimethyl sulfoxide ([2]; dimethyl sulfoxide): dissolved
solubility in ethyl acetate ([2]; ethyl acetate, heating to reflux temperatures and sonicating for up to one hour): did not dissolve
minimum gel concentration (MGC) ([3]; DMF): 0.06 wt.%
minimum gel concentration (MGC) ([3]; acetone): 0.06 wt.%
gel formation in chloroform ([3]; chloroform solution): did not form gels
gel formation in dichloromethane ([3]; dichloromethane solution): did not form gels
gel formation in dimethyl sulfoxide ([3]; dimethyl sulfoxide solution): did not form gels
gel formation in ethanol ([3]; ethanol solution): did not form gels
gel formation in isopropanol ([3]; isopropanol solution): did not form gels
gel formation in methanol ([3]; methanol solution): did not form gels
gel formation in toluene ([3]; toluene solution): did not form gels
Substance: N-Octanoic acid-Val3-His-Gly-Val3

solubility in acetonitrile/water mixtures ([2]; mixtures of acetonitrile and water, VVVGHVVV-C8 with sonication): soluble
solubility in water ([2]; water, regardless of pH, temperature and sonication): peculiarly soluble in water
gelation of acetonitrile/water solutions ([3]; acetonitrile/water mixtures): did not gelate
Substance: N- Val3-His-Gly-Val3

Substance: EEEAAAVVV-C16 [previously reported hydrogel-forming peptide amphiphile studied by the Stupp and Nguyen groups]
gel stiffness [4]: < 10^4 Pa
